{"source": "patent US20160251367A1", "about": "“SYNTHESIS OF TRITOQUALINE SALTS” (Chrysalis Pharma, priority 2014, published 2016)", "data": [{"experiment": "physchem", "assay_type": "physicochemical", "conditions": "not given", "from_the_text": "(§1) The dissolution tests show a very substantial and surprising increase in tritoqualine.", "units": {"solubility": "M/L"}, "values": [{"compound": "CC(=O)O.CCOc1c(N)c2c(c(OCC)c1OCC)C(C1c3c(cc4c(c3OC)OCO4)CCN1C)OC2=O", "note": "(centres unmarked) [Tritoqualine acetate, tritoqualine acetate]", "increase of the initial solubility of tritoqualine in water": "1500 times", "solubility": 0.75}, {"compound": "CC1(C)C2CCC1(CS(=O)(=O)O)C(=O)C2.CCOc1c(N)c2c(c(OCC)c1OCC)C(C1c3c(cc4c(c3OC)OCO4)CCN1C)OC2=O", "note": "(centres unmarked) [Tritoqualine camphorsulfonate, tritoqualine camphorsulfonate]", "increase of the initial solubility of tritoqualine in water": "11 000 times"}, {"compound": "CCOc1c(N)c2c(c(OCC)c1OCC)C(C1c3c(cc4c(c3OC)OCO4)CCN1C)OC2=O.O=C(O)C=CC(=O)O", "note": "(centres unmarked) [Tritoqualine fumarate, tritoqualine fumarate]", "increase of the initial solubility of tritoqualine in water": "15 000 times"}, {"compound": "CCOc1c(N)c2c(c(OCC)c1OCC)C(C1c3c(cc4c(c3OC)OCO4)CCN1C)OC2=O.Cl", "note": "(centres unmarked) [Tritoqualine hydrochloride, tritoqualine hydrochloride]", "increase of the initial solubility of tritoqualine in water": "500 times", "solubility": 0.25}, {"compound": "CCOc1c(N)c2c(c(OCC)c1OCC)C(C1c3c(cc4c(c3OC)OCO4)CCN1C)OC2=O.CS(=O)(=O)O", "note": "(centres unmarked) [Tritoqualine methylsulfonate, tritoqualine methylsulfonate]", "increase of the initial solubility of tritoqualine in water": "50 000 times"}, {"compound": "CCOc1c(N)c2c(c(OCC)c1OCC)C(C1c3c(cc4c(c3OC)OCO4)CCN1C)OC2=O.O=P(O)(O)O", "note": "(centres unmarked) [Tritoqualine phosphate, tritoqualine phosphate]", "increase of the initial solubility of tritoqualine in water": "31 000 times"}, {"compound": "tritoqualine sulfate", "increase of the initial solubility of tritoqualine in water": "2500 times", "solubility": 1.25}]}, {"experiment": "physchem", "assay_type": "physicochemical", "conditions": "water", "from_the_text": "as §1", "units": {"solubility": "µM"}, "values": [{"compound": "CCOc1c(N)c2c(c(OCC)c1OCC)C(C1c3c(cc4c(c3OC)OCO4)CCN1C)OC2=O", "note": "(racemic) [tritoqualine, 7-Amino-4,5,6-triethoxy-3-(5,6,7,8-tetrahydro-4-methoxy-6-methyl-1,3-dioxolo[4,5-g]isoquinolin-5-yl) phthalide]", "solubility": 500}]}]}
